Data reported in patent US20130259830A1, “CRTH2 MODULATORS” (Ironwood Pharmaceuticals, Inc., priority 2010, published 2013).

Assays:
CRTH2 [1] = target: T1, CRTH2 (Homo sapiens, UniProt Q9Y5Y4); experiment: Human whole blood CD11b antagonist assay (CD11b expression in eosinophils challenged with 15-R-methyl-PGD2); format: cell-based; conditions: 37° C. 10 minutes preincubation, agonist 15R-Methyl-PGD2 10 nM, eosinophils gated by flow cytometry
T1 construct: endogenous in cells; host or cells: eosinophils in human whole blood
T1 sequence (Q9Y5Y4 1-395): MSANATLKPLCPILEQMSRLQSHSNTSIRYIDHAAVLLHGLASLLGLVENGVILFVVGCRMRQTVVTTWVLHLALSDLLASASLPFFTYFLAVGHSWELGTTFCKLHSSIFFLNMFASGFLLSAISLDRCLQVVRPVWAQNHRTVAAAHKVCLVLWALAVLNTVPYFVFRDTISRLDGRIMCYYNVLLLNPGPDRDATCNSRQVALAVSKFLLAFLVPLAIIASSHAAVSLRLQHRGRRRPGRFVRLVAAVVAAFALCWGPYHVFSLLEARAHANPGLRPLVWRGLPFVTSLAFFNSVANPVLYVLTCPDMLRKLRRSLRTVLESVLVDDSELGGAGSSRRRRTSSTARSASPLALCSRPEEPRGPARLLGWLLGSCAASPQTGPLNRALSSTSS
Description: Human Whole Blood […] Antagonist Assay (Modified from Nicholson, et al. Pulmonary Pharmacology and Therapeutics: 20 (2007); 52-59).
The potential CRTH2 antagonist activity of certain compounds was tested in human whole blood using an assay that tests the ability of the compounds to block the CD11b expression in eosinophils by 15-R-methyl-PGD2. A CRTH2 antagonist should block CD11b expression by subsequently added 15-Methyl-PGD2. Human whole blood (200 μL) was incubated at 37° C. for 10 minutes in the presence of various concentrations of test compounds before being challenged with the agonist 1-5R-Methyl-PGD2 (10 nM). Reactions were terminated by the addition of ice-cold PBS+0.5% BSA+2 mM EDTA (1 mL) and centrifugation (300×g for 5 minutes at 4° C.) Cells were then incubated at 4° C. for 10 min in the presence of human IgG. Cells were then incubated for 30-45 min with a mixture of PE-Cy5-labeled mouse anti-human CD16 (10 ul; BD Biosciences) and FITC-labeled mouse anti-human CD11b (10 μL; Beckman Coulter.) After rinsing (1 mL ice-cold PBS+0.5% BSA+2 mM EDTA), red blood cells were lysed by the addition of 1 mL ice-cold H2O to the cell pellet for 30 sec-1 min immediately followed by the addition of 3.5% NaCl (300 μL.) Cells were then rinsed (2×−1 ml ice cold PBS+0.5% BSA+2m MEDTA) and fixed in PBS containing 1% formaldehyde. The distribution of fluorescence intensities was measured by flow cytometry. Eosinophils were gated out on the basis of their granularity (high side scatter) and absence of CD-16. CD11b was then measured on this eosinophil population on the basis of fluorescence due to FITC.

CRTH2 [2] = target: T1, CRTH2; experiment: DPBS CD11b antagonist assay (CD11b expression in eosinophils challenged with 15R-Methyl-PGD2); format: cell-based; conditions: polymorphonuclear cells in PBS with CaCl2/MgCl2; agonist 15R-Methyl-PGD2 10 nM; eosinophils gated by flow cytometry
Description: DPBS CD111b Antagonist Assay.
The potential CRTH2 antagonist, activity of certain compounds was tested using a CD11b expression assay using essentially the method described by Monneret et al. (J Pharmacol Exp Ther 304:349-55, 2003). Briefly, polymorphonuclear cells (0.5 ml; 10^6/ml cells) in PBS containing 0.9 mM CaCl2 and 0.5 mM MgCl2) were preincubated with various concentrations of test compounds at room temperature for 10 minutes before they were challenged with the agonist 15R-Methyl-PGD2 (10 nM). The incubations were terminated by the addition of ice-cold FACSFlow (BD Biosciences; Cat#342003) and centrifugation (400 g for 5 minutes at 4° C.). The cells were then incubated for 30 minutes at 4° C. with a mixture of PE-labeled mouse anti-human VLA-4 (5 μl; BD Biosciences) and FITC-labeled mouse anti-human CD11b (10 μl; Beckman Coulter). The cells were then incubated with Optilyse C (0.25 ml; Beckman Coulter) for 15 minutes, centrifuged, and then fixed in PBS (0.4 ml; calcium and magnesium free) containing 1% formaldehyde. The distribution of fluorescence intensities among 60,000 cells was measured by flow cytometry. Eosinophils were gated out on the basis of their granularity (high side scatter) and labeling with VLA-4 (PE fluorescence). CD11b was then measured in the eosinophil region on the basis of fluorescence due to FITC. All data were corrected for the value obtained for the corresponding isotope control antibody.

Structure (SMILES) | IC50 (CRTH2 [1]) | IC50 (CRTH2 [2])
COc1ccc(S(=O)(=O)c2ncccc2Cc2c3c(n(CC(=O)O)c2C)CC(C)(C)CC3=O)cc1 [Compound I-7, 2-(3-((2-(4-methoxyphenylsulfonyl)pyridin-3-yl)methyl)-2,6,6-trimethyl-4-oxo-4,5,6,7-tetrahydro-1H-indol-1-yl)acetic acid] | 20 to 100 nM | < 1 nM
Cc1c(Cc2ccccc2NS(=O)(=O)N2CCCC2)c2c(n1CC(=O)O)CC(C)(C)CC2=O [Compound I-40, 2-(2,6,6-Trimethyl-4-oxo-3-(2-(pyrrolidine-1-sulfonamido)benzyl)-4,5,6,7-tetrahydro-1H-indol-1-yl)acetic acid] | 100 to 500 nM | 1 to 5 nM
Cc1c(Cc2cc3ccccc3n2S(=O)(=O)N2CCOCC2)c2c(n1CC(=O)O)CC(C)(C)CC2=O [Compound I-37] | 20 to 100 nM | < 1 nM
Cc1c(Cc2cccnc2S(=O)(=O)c2ccc(C(F)(F)F)cc2)c2c(n1CC(=O)O)CC(C)(C)CC2=O [Compound I-12, 2-(2,6,6-Trimethyl-4-oxo-3-((2-(4-(trifluoromethyl)phenylsulfonyl)pyridin-3-yl)methyl)-4,5,6,7-tetrahydro-1H-indol-1-yl)acetic acid] | 500 to 3000 nM | 100 to 500 nM
COc1cccc(S(=O)(=O)c2ncccc2Cc2c3c(n(CC(=O)O)c2C)CC(C)(C)CC3=O)c1 [Compound I-13, 2-(3-((2-(3-Methoxyphenylsulfonyl)pyridin-3-yl)methyl)-2,6,6-trimethyl-4-oxo-4,5,6,7-tetrahydro-1H-indol-1-yl)acetic acid] | 20 to 100 nM | 1 to 5 nM
Cc1c(Cc2ccccc2NS(=O)(=O)c2ccc(C(C)C)cc2)c2c(n1CC(=O)O)CC(C)(C)CC2=O [Compound I-27, 2-(3-(2-(4-Isopropylphenylsulfonamido)benzyl)-2,6,6-trimethyl-4-oxo-4,5,6,7-tetrahydro-1H-indol-1-yl)acetic acid] | 20 to 100 nM | < 1 nM
Cc1c(Cc2ccccc2NS(=O)(=O)c2ccc(F)cc2F)c2c(n1CC(=O)O)CC(C)(C)CC2=O [Compound I-22, 2-(3-(2-(2,4-Difluorophenylsulfonamido)benzyl)-2,6,6-trimethyl-4-oxo-4,5,6,7-tetrahydro-1H-indol-1-yl)acetic acid] | 20 to 100 nM | < 1 nM
Cc1c(Cc2cccnc2S(=O)(=O)c2ccc(F)cc2F)c2c(n1CC(=O)O)CC(C)(C)CC2=O [Compound I-19, 2-(3-((2-(2,4-Difluorophenylsulfonyl)pyridin-3-yl)methyl)-2,6,6-trimethyl-4-oxo-4,5,6,7-tetrahydro-1H-indol-1-yl)acetic acid] | 20 to 100 nM | 1 to 5 nM
Cc1c(Cc2ccccc2N(C)S(=O)(=O)N2CCCC2)c2c(n1CC(=O)O)CC(C)(C)CC2=O [Compound I-43, 2-(2,6,6-Trimethyl-3-(2-(N-methylpyrrolidine-1-sulfonamido)benzyl)-4-oxo-4,5,6,7-tetrahydro-1H-indol-1-yl)acetic acid] | 20 to 100 nM | 5 to 20 nM
CCOC(=O)Cn1c(C)c(Cc2cccnc2S(=O)(=O)c2ccc(F)cc2)c2c1CC(C)(C)CC2=O [Compound I-8, ethyl 2-(3-((2-(4-fluorophenylsulfonyl)pyridin-3-yl)methyl)-2,6,6-trimethyl-4-oxo-4,5,6,7-tetrahydro-1H-indol-1-yl)acetate] | 500 to 3000 nM | 20 to 100 nM
Cc1c(Sc2ccccc2NS(=O)(=O)c2ccccc2)c2c(n1CC(=O)O)CC(C)(C)CC2 [Compound I-52, 2-(2,6,6-trimethyl-3-(2-(phenylsulfonamido)phenylthio)-4,5,6,7-tetrahydro-1H-indol-1-yl)acetic acid] | 5 to 20 nM | < 1 nM
CCOC(=O)Cn1c(C)c(Cc2cccnc2S(=O)(=O)c2ccc(C)cc2)c2c1CC(C)(C)CC2=O [Compound I-16, Ethyl 2-(2,6,6-trimethyl-4-oxo-3-((2-tosylpyridin-3-yl)methyl)-4,5,6,7-tetrahydro-1H-indol-1-yl)acetate] | 500 to 3000 nM | 20 to 100 nM
Cc1ccc(S(=O)(=O)Nc2ccccc2Cc2c3c(n(CC(=O)O)c2C)CC(C)(C)CC3=O)cc1 [Compound I-23, 2-(2,6,6-Trimethyl-3-(2-(4-methylphenylsulfonamido)benzyl)-4-oxo-4,5,6,7-tetrahydro-1H-indol-1-yl)acetic acid] | 1 to 5 nM | < 1 nM
Cc1c(Cc2cccc(N(C)S(=O)(=O)N3CCCC3)c2)c2c(n1CC(=O)O)CC(C)(C)CC2=O [Compound I-51, 2-(2,6,6-Trimethyl-3-(3-(N-methylpyrrolidine-1-sulfonamido)benzyl)-4-oxo-4,5,6,7-tetrahydro-1H-indol-1-yl)acetic acid] | > 3000 nM | 100 to 500 nM
Cc1c(Cc2ccccc2NS(=O)(=O)c2ccccc2)c2c(n1CC(=O)O)CC(C)(C)CC2=O [Compound I-24, 2-(2,6,6-Trimethyl-4-oxo-3-(2-(phenylsulfonamido)benzyl)-4,5,6,7-tetrahydro-1H-indol-1-yl)acetic acid] | 5 to 20 nM | < 1 nM
Cc1c(Cc2cccnc2S(C)(=O)=O)c2c(n1CC(=O)O)CC(C)(C)CC2=O [Compound I-32, 2-(2,6,6-Trimethyl-3-((2-(methylsulfonyl)pyridin-3-yl)methyl)-4-oxo-4,5,6,7-tetrahydro-1H-indol-1-yl)acetic acid] | 500 to 3000 nM | 500 to 3000 nM
Cc1c(Cc2ccccc2S(=O)(=O)N2CCCC2)c2c(n1CC(=O)O)CC(C)(C)C/C2=N\OC(C)(C)C [Compound I-30, (E)-2-(4-(tert-Butoxyimino)-2,6,6-trimethyl-3-(2-(pyrrolidin-1-ylsulfonyl)benzyl)-4,5,6,7-tetrahydro-1H-indol-1-yl)acetic acid] | 100 to 500 nM | 1 to 5 nM
Cc1c(Cc2ccccc2N(C)S(=O)(=O)c2ccc(C(C)C)cc2)c2c(n1CC(=O)O)CC(C)(C)CC2=O [Compound I-34, 2-(3-(2-(4-Isopropyl-N-methylphenylsulfonamido)benzyl)-2,6,6-trimethyl-4-oxo-4,5,6,7-tetrahydro-1H-indol-1-yl)acetic acid] | 500 to 3000 nM | 5 to 20 nM
Cc1c(Cc2ccccc2NS(=O)(=O)c2ccc(C(F)(F)F)cc2)c2c(n1CC(=O)O)CC(C)(C)CC2=O [Compound I-25, 2-(2,6,6-Trimethyl-4-oxo-3-(2-(4-(trifluoromethyl)phenylsulfonamido)benzyl)-4,5,6,7-tetrahydro-1H-indol-1-yl)acetic acid] | 20 to 100 nM | < 1 nM
CCOC(=O)Cn1c(C)c(Cc2cccnc2S(=O)(=O)c2ccc(F)cc2F)c2c1CC(C)(C)CC2=O [Compound I-18, Ethyl 2-(3-((2-(2,4-difluorophenylsulfonyl)pyridin-3-yl)methyl)-2,6,6-trimethyl-4-oxo-4,5,6,7-tetrahydro-1H-indol-1-yl)acetate] | 500 to 3000 nM | 100 to 500 nM
Cc1c(Cc2cccnc2S(=O)(=O)c2ccccc2C(F)(F)F)c2c(n1CC(=O)O)CC(C)(C)CC2=O [Compound I-17, 2-(2,6,6-Trimethyl-4-oxo-3-((2-(2-(trifluoromethyl)phenylsulfonyl)pyridin-3-yl)methyl)-4,5,6,7-tetrahydro-1H-indol-1-yl)acetic acid] | 5 to 20 nM | < 1 nM
